What was measured:
Experiment in all cases: CellTiter-Glo 2.0 cell viability, 7x7 combination dose response matrix, synergy scoring
Format in all cases: cell-based
CAL51 cell line = test system: CAL51 cell line
Description: (§1) A study was undertaken to determine whether the combination of a GSPT1-directed MGD and an inhibitor of the PI3K/AKT/mTOR pathway could be effective in killing cancer cells and whether certain combination could elicit a greater than additive effect on cell killing.
(§2) FIG. 1 is a flow diagram of the method used to assess cancer cell killing by a combination of a GSPT1-directed MGD and an inhibitor of the PI3K/AKT/mTOR pathway. Certain of the materials and equipment used in the studies are presented in Table 3 and the cell lines used are presented in Table 4.
(§3) All assays were run in triplicate. Each 384-well plate accommodated six 7×7 dose response matrices (FIG. 2). All compound handling was performed using an Echo 650 Series Acoustic Liquid Handler, which enables fully automated, precise, contact-free acoustic transfer in volumes as low as 2.5 nL.
(§4) The following protocol was used for cell plating: • 1. Warm media to room temperature or 37° C. • 2. Prepare complete phenol-free media by adding 10% FBS+1% Pen-Strep to RPMI 1640 Medium or DMEM. • 3. Aspirate media from T175 tissue culture flask and rinse with 10 ml PBS. • 4. Aspirate PBS and add 2 mL 0.25% trypsin. Incubate the flask at 37° C. for 5 min or until cells are detached. • 5. Add 10 mL complete media to the flask to neutralize the trypsin, then collect cells in a 50 mL conical tube. • 6. Centrifuge cells at 300 g for 5 min. Aspirate media and suspend cell pellet in fresh media. Use cell strainer to strain cells into a new 50 mL conical tube. • 7. […] Mix 100 uL cell suspension with 100 uL trypan blue (1:1) and pipette 20 μL of the mixture into each of 2 counting chambers on a slide. Insert slide. • b. Adjust focus and record the live cell count. At least 2 independent measurements should be taken. […] Cell viability should be greater than 90%. […] Dilute cell suspension to the desired concentration (20000 cells/mL) using complete phenol-free media. Prepare 10 mL cell suspension per plate+an extra 10 mL for priming the liquid handler. • 9. Dispense cells into 384-well plates using the liquid handler at 25 uL/well (500 cells/well). 3 plates should be prepared per compound plate to be treated. • 10. Cells should be dispensed into columns 1-23 only. Media only (no cells) should be dispensed into column 24. • 11. Allow plates to rest at RT for 30 minutes before transferring to the incubator. Incubate cells overnight at 37° C., 95% humidity, and 5% CO2.
(§5) Compound plates were prepared as follows using an Echo 650 Series Acoustic Liquid Handler. • 1. A compound plate containing 7-point dose responses of each compound to be treated is first prepared from stock compounds. • 2. The cell plates are treated with compounds according to the following maps, where the first compound is added across all six 7 by 7 dose response matrices, and its concentration varies by row (FIG. 2; top matrix), whereas the second compound varies for each dose response matrix, and its concentration varies by column (FIG. 2; bottom matrix). Each cell plate receives one Compound A and six different Compound Bs. • 3. To prepare a compound plate, 384-well PP plate with stock compounds (highest concentration) is prepared. Compounds are diluted 1:1000 in the cell plates, e.g. 10 mM on compound plate will be 10 uM on cell plate. A 384-well LDV plate with pre-determined volumes of DMSO is prepared. Echo is used to dilute stock compounds from PP plate into LDV plate to prepare 7-point dose responses.
(§6) Compounds were added to the cells and cell viability was measured after 72 hour incubation using CellTiter-Glo 2.0 Cell Viability Assay (Promega): • 1. For a compound addition, Echo is used to transfer 25 nL from the compound plate wells to the cell plates according to the plate maps shown in FIG. 2. Cell plates are treated in triplicate. Each well of the cell plate has 25 uL media (1:1000 dilution). Incubate cells post-treatment at 37° C., 95% humidity, and 5% CO2 for 72 hrs (step 106). • 2. […]

MCF7 cell line = test system: MCF7 cell line
Description: as §1, §2, §3, §4, §5, §6

MDA-MB-157 cell line = conditions: combined with M2698 41-10000 nM, first compound 0.41-100 nM
Description: as §1, §2, §3, §4, §5, §6

MDA-MB-231 cell line = conditions: MDA-MB-231; combined with M2698 41-10000 nM; first compound 0.41-100 nM
Description: as §1, §2, §3, §4, §5, §6

[1] = CAL51, combined with Alpelisib 41-10000 nM, first compound 0.41-33.33 nM
[2] = CAL51, combined with M2698 41-10000 nM, first compound 0.41-100 nM
[3] = MCF7, combined with Alpelisib 41-10000 nM, first compound 0.41-33.33 nM
[4] = MCF7, combined with M2698 41-10000 nM, first compound 0.41-100 nM

| SMILES | Mean Bliss synergy score (CAL51 cell line; [1]) | Mean Loewe synergy score (CAL51 cell line; [1]) | Mean Bliss synergy score (CAL51 cell line; [2]) | Mean Loewe synergy score (CAL51 cell line; [2]) | Mean Bliss synergy score (CAL51 cell line; combined with M2698 (41 nM to 10 uM), CAL51 cell line, mean across dose response matrix, 72 hrs) | Mean Bliss synergy score (MCF7 cell line; [3]) | Mean Loewe synergy score (MCF7 cell line; [3]) | Mean Bliss synergy score (MCF7 cell line; [4]) | Mean Loewe synergy score (MCF7 cell line; [4]) | Mean Bliss synergy score (MDA-MB-157 cell line) | Mean Loewe synergy score (MDA-MB-157 cell line) | Mean Bliss synergy score (MDA-MB-231 cell line) | Mean Loewe synergy score (MDA-MB-231 cell line) | Mean Bliss synergy score (MCF7 cell line; combined with Alpelisib (41 nM to 10 uM), MCF7 cell line, mean across dose response matrix, 72 hrs) |
| --- | --- | --- | --- | --- | --- | --- | --- | --- | --- | --- | --- | --- | --- | --- |
| O=C1CCC(N2Cc3ccc(COC(=O)Nc4ccc(F)c(OC(F)(F)F)c4)cc3C2=O)C(=O)N1 (centres unmarked) [Compound 1-2, [2-(2,6-dioxopiperidin-3-yl)-3-oxo-2,3-dihydro-1H-isoindol-5-yl]methyl N-[4-fluoro-3-(trifluoromethoxy)phenyl]carbamate] | 13.24 | 10.04 | 20.45 | 10.06 | 20.45 | 14.93 | 11.94 | 19.15 | 12.31 | 4.58 | 5.68 | 1.26 | 3.82 |  |
| O=C1CCC(N2Cc3ccc(COC(=O)Nc4cccc(OC(F)(F)F)c4)cc3C2=O)C(=O)N1 (centres unmarked) [Compound 1-5, [2-(2,6-dioxopiperidin-3-yl)-3-oxo-2,3-dihydro-1H-isoindol-5-yl]methyl N-[3-(trifluoromethoxy)phenyl]carbamate] | −0.17 | 7.63 | 7.95 | 11.33 |  | −2.19 | 6.06 | 5.35 | 12.24 | 2.85 | 4.08 | 1.74 | 3.68 |  |
| O=C1CCC(N2Cc3ccc(COC(=O)Nc4ccc(F)c(OC(F)F)c4)cc3C2=O)C(=O)N1 (centres unmarked) [Compound 1-3, [2-(2,6-dioxopiperidin-3-yl)-3-oxo-2,3-dihydro-1H-isoindol-5-yl]methyl N-[3-(difluoromethoxy)-4-fluorophenyl]carbamate] | 13.63 | 8.54 | 30.29 | 15.43 |  | 17.71 | 10.32 | 25.34 | 13.77 | 6.71 | 6.57 | 5.67 | 4.75 | 17.71 |
